We go through 2 compounds from patent US9096605B2, “Pyrazolopyrimidine derivatives as PI3 kinase inhibitors” (GlaxoSmithKline LLC, priority 2011, dated 2015).

The test system of test [1] is pAKT(Ser473) in MDA-MB-468 cells. Nature of the test: pAKT(Ser473) assay in MDA-MB-468 cells. Format: cell-based. To be noted: Homo sapiens, 0.5 h, compound treatment 30 minutes, MSD ELISA phospho AKT(Ser473), given as ranges, read-out: Cell Activity—pAKT IC50 in MDA-MB-468.
In another test the target is T1, PI3K-beta (Homo sapiens, UniProt P42338).
T1 construct: made in house
Nature of the test: HTRF in vitro profiling assay for PI3K inhibition (beta isoform). The following applies: PI3K-beta enzyme pIC50 range, 200 pM enzyme, 100 uM ATP, 10 uM PIP2, 150 mM NaCl, corrected pIC50, read-out: PI3K-b Enz Activity. Format: biochemical. Summed up: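 PI3Kβ at 200 pM, preincubated 15 min with compound (11-point 3-fold series), then reacted 1 h at room temperature with 10 uM PIP2 and 100 uM ATP in buffer with 150 mM NaCl and 5 mM DTT. PIP3 formed measured by HTRF displacement of biotin-PIP3 from a GST-PH domain complex (665/620 nm).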
For orientation: TR-FRET usually uses a lanthanide donor and a delayed reading to cut background.

T1 sequence (P42338 whole entry): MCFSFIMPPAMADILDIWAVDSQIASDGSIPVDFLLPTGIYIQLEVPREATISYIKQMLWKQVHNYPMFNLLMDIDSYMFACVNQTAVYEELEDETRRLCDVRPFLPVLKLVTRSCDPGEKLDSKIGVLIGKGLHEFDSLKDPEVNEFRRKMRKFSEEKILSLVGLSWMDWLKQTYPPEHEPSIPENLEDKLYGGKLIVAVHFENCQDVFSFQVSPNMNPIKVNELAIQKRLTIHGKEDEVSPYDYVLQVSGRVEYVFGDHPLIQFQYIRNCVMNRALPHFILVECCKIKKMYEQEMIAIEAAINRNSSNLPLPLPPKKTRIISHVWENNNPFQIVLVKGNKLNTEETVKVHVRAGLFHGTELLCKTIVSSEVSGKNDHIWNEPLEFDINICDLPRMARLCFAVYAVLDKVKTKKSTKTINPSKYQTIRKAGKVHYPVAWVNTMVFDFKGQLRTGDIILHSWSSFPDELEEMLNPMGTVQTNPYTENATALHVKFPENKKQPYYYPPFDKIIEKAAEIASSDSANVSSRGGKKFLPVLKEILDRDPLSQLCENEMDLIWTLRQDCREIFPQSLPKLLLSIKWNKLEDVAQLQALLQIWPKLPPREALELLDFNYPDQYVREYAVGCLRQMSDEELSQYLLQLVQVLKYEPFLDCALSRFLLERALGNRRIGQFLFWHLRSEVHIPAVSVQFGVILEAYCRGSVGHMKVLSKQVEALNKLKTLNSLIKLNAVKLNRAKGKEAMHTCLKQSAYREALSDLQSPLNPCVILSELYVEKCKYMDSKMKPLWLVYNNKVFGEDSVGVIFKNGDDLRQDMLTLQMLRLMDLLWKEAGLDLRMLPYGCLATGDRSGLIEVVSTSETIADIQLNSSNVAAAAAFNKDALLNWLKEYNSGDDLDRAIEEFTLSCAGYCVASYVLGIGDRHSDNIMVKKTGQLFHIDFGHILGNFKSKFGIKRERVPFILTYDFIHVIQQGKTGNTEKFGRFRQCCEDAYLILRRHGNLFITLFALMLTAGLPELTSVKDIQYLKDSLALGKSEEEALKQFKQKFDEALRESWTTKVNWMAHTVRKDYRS
T1 sequence (P27986 whole entry partner): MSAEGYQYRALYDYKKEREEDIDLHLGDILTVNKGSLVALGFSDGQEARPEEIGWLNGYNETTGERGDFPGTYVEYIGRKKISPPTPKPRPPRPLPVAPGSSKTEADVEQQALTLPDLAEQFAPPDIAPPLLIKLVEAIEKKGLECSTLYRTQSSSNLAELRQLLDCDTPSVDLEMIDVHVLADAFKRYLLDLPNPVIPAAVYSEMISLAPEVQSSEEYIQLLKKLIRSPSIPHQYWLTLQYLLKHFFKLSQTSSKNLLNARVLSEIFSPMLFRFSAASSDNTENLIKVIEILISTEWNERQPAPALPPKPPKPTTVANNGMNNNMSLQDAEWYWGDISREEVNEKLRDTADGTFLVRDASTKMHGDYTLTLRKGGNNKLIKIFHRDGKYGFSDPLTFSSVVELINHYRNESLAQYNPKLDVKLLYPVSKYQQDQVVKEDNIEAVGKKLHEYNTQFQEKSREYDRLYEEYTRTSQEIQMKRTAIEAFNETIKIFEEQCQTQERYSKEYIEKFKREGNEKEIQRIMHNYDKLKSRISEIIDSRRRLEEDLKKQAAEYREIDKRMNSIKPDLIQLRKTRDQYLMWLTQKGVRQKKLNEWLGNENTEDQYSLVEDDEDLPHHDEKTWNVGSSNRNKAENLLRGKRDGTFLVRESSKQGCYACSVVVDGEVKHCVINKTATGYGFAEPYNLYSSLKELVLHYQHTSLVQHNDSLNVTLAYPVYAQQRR

Consider `Cc1c(Cc2cnn3c(-c4cn[nH]c4)cc(N4CCOCC4)nc23)cccc1C(F)(F)F` [Example 48, 4-(3-(2-methyl-3-(trifluoromethyl)benzyl)-7-(1H-pyrazol-4-yl)pyrazolo[1,5-a]pyrimidin-5-yl)morpholine], for which the IC50 was more than 20000 nM in test [1] and 126 to 1260 nM at PI3K-beta.
`Cn1c(=O)c(Cc2cccc(Cl)c2Cl)c2nc(-c3ccncc3)cc(O)n21` [Example 50, 3-(2,3-dichlorobenzyl)-7-hydroxy-1-methyl-5-(pyridin-4-yl)pyrazolo[1,5-a]pyrimidin-2(1H)-one]: the IC50 in test [1] is 6000 to 10000 nM; on PI3K-beta it was 12.6 to 100 nM.
